Patent publication US20240315994A1, “SMALL MOLECULE MODULATORS OF FERROPTOSIS” (ARPEGGIO BIOSCIENCES, INC., priority 2021, published 2024)

Tested on: HT-1080 fibrosarcoma cells
Test: HT-1080 single-concentration cell viability screen (Cell Titer Glo)
Type: cell-based
Settings: 10 μM compound, 48 hours, duplicate, fraction of control
Description: To identify potential covalent inhibitors of GPX4, we screened a panel of 294 diverse small molecules from the Enamine covalent inhibitor library (Catalog No. CSL-10480-0-Z-10, Enamine, Monmouth, NJ). Each compound contains either a chloroacetamide or acrylamide moiety theoretically capable of forming a covalent bond with a selenocysteine. The small molecule compounds were selected for a diversity of backbone structures. The screening protocol used the cell viability assay Cell Titer Glo® (available from Promega, Madison, WI). Cell Titer Glo® is a luminescent cell viability that determines the number of viable cells in culture by quantifying ATP, which indicates the presence of metabolically active cells. Briefly, HT-1080 fibrosarcoma cells were plated 24 hours prior to treatment with 10 µM of each compound in the screening panel. Cell Titer Glo® was used to read out cell viability after 48 hours of compound exposure. Data was collected in duplicate.
To determine whether similar molecules could offer other starting points for a medicinal chemistry campaign, we screened 95 additional compounds that contain a similar base structure to that of 8216. Briefly, HT-1080 fibrosarcoma cells were treated with 10 µM of a compound for 48 hours and cell viability was measured by Cell Titer Glo®. Data was collected in duplicate. […]

Structure (SMILES)	Average relative cell viability
CCOC(=O)c1sc(N(Cc2ccccc2)C(=O)CCl)nc1C [Compound Z56837076]	0.004698
O=C(CCl)N(Cc1cc(F)ccc1F)CC1CCOCC1 [Compound Z3837255186]	0.1331
Cc1scc(CN(Cc2ccc3c(c2)OCCCO3)C(=O)CCl)c1C [Compound Z4425210974]	0.001284
O=C(CCl)N(Cc1ccccc1)Cc1ccc(F)cc1 [Compound Z381549666]	0.001836
COCCN(Cc1ccccc1)C(=O)CCl [Compound Z147647648]	0.1007
CC(C)(C)n1nnc(CN(Cc2cccc(C3CC3)c2F)C(=O)CCl)n1 [Compound Z4425210960]	0.01925
CC1(N(Cc2ccc3c(c2)OCO3)C(=O)CCl)CCCC1 [Compound Z3766260223]	0.002238
CN(Cc1nc2c(cnn2C)c(=O)[nH]1)C(=O)CCl [Compound Z3337549802]	1.034
Cc1ccc(CN(Cc2cnn(C)c2)C(=O)CCl)cc1C [Compound Z3837366035]	0.531
Cc1cc(CN(C(=O)CCl)C2CCCC2)c2ccccc2n1 [Compound Z1562139496]	0.000174
O=C(CCl)N(Cc1nc(C2CCCCCC2)no1)C1CC1 [Compound Z3766269910]	0.002904
O=C(CCl)N(Cc1cnn(-c2ccccc2)c1)C1CC1 [Compound Z3629871044]	0.001764
Cn1ccc(N(Cc2ccccc2)C(=O)CCl)n1 [Compound Z4170009630]	0.08916
O=C(CCl)N(Cc1ccc2c(c1)OCCO2)Cc1ncoc1C1CCC1 [Compound Z4425210448]	0.00756

Tested on: HT1080 cells (ATCC, cat #CCL-121)
Test: HT1080 CellTiter-Glo 2.0 IC50 assay of working examples
Type: cell-based
Settings: HT-1080, 24 hrs, cells plated with and without 1.5 μM ferrostatin-1, table does not say which, Table 7
Description: Biological evaluation of working examples A1-A47 and B1-B28 was performed in HT1080 cells (ATCC, cat #CCL-121) according to the procedure provided below.
• 1.1 Cells were harvested from flask into cell culture medium and then the cell number count was determined. • 1.2 The cells were suspended with 1.5 μM ferrostatin-1 and without ferrostatin-1. • 1.3 Cells were plated at a density of 1,500 cells per well in a 384-well black sided clear bottom plate, in 25 μL, using electronic multichannel pipette. • 1.4 Plates were covered with lid and spun for 1 min at 1000 rpm, then allowed to incubate overnight at 37° C. under 5% CO2.
• 2.1 Compounds were dissolved at 10 mM stock solution and 10 μl of diluted solution was transferred to a 384 LDV-plate (LABCYTE, LP-0200). A 3 fold, 11-point dilution was performed. • 2.2 Cells were treated with compounds by plate reformat Echo software and spun for 1 min at 1000 rpm. Then incubated at 37° C. for 24 hrs in a CO2 incubator.
• 3.1 The plates were removed from the incubator and allowed to equilibrate to room temperature, at least 30 minutes. • 3.2 CellTiter-Glo® 2.0 Reagent (Promega, G9242) was added (25 μL) to the assay plates and spun for 1 min at 1000 rpm. Then allowed to stand for about 20 minutes before reading luminescence signal on Envision. • 3.3 The IC50 calculations were determined with a nonlinear fit, variable slope (four parameters) log(inhibitor) vs. response model using GraphPad PRISM.

Structure (SMILES)	IC50 [nM]
COc1cc(OC)cc(N(Cc2c(Cl)cc(F)cc2Cl)C(=O)CCl)c1 [Compound A26, 2-chloro-N-[(2,6-dichloro-4-fluoro-phenyl)methyl]-N-(3,5-dimethoxyphenyl)acetamide]	10 to 100
COc1cc(OC)cc(N(Cc2ccc(F)c(F)c2Cl)C(=O)CCl)c1 [Compound A43, 2-chloro-N-[(2-chloro-3,4-difluoro-phenyl)methyl]-N-(3,5-dimethoxyphenyl)acetamide]	≤ 10

Further lines, results first:

IC50 [nM]	Structure (SMILES)
100 to 1000	O=C(CCl)N(Cc1ccc(F)cc1)c1cc(O)cc(Cl)c1 [Compound A34, 2-chloro-N-(3-chloro-5-hydroxy-phenyl)-N-[(4-fluorophenyl)methyl]acetamide]
100 to 1000	Cc1cc(C)cc(N(Cc2ccc(F)cc2)C(=O)CCl)c1 [Compound A1, 2-chloro-N-(3,5-dimethylphenyl)-N-[(4-fluorophenyl)methyl]acetamide]
100 to 1000	COc1cccc(N(Cc2ccc(F)cc2)C(=O)CCl)c1Cl [Compound A35, 2-chloro-N-(2-chloro-3-methoxy-phenyl)-N-[(4-fluorophenyl)methyl]acetamide]
10 to 100	COc1cc(OC)cc(N(Cc2cc(C)cc(F)c2)C(=O)CCl)c1 [Compound A44, 2-chloro-N-(3,5-dimethoxyphenyl)-N-[(3-fluoro-5-methyl-phenyl)methyl]acetamide]
≤ 10	COc1cc(OC)cc(N(Cc2ccc(F)c(OC)c2)C(=O)CCl)c1 [Compound A33, 2-chloro-N-(3,5-dimethoxyphenyl)-N-[(4-fluoro-3-methoxy-phenyl)methyl]acetamide]
10 to 100	COc1cc(N(Cc2ccc(F)cc2)C(=O)CCl)ccc1C [Compound A29, 2-chloro-N-[(4-fluorophenyl)methyl]-N-(3-methoxy-4-methyl-phenyl)acetamide]
100 to 1000	COc1cccc(N(Cc2ccc(F)cc2)C(=O)CCl)c1 [Compound A13, 2-chloro-N-[(4-fluorophenyl)methyl]-N-(3-methoxyphenyl)acetamide]
100 to 1000	COc1ccc(N(Cc2ccc(F)cc2)C(=O)CCl)cc1Cl [Compound A17, 2-chloro-N-(3-chloro-4-methoxy-phenyl)-N-[(4-fluorophenyl)methyl]acetamide]
> 10000	Cc1cc(N(Cc2ccc(F)cc2)C(=O)CCl)cc(C)c1O [Compound A41, 2-chloro-N-[(4-fluorophenyl)methyl]-N-(4-hydroxy-3,5-dimethyl-phenyl)acetamide]
10 to 100	COc1c(C)cc(N(Cc2ccc(F)cc2)C(=O)CCl)cc1C [Compound A40, 2-chloro-N-[(4-fluorophenyl)methyl]-N-(4-methoxy-3,5-dimethyl-phenyl)acetamide]
10 to 100	COc1cc(OC)cc(N(Cc2cccc(F)c2F)C(=O)CCl)c1 [Compound A20, 2-chloro-N-[(2,3-difluorophenyl)methyl]-N-(3,5-dimethoxyphenyl)acetamide]
10 to 100	Cc1cc(C)cc(N(Cc2cccc(Cl)c2)C(=O)CCl)c1 [Compound A9, 2-chloro-N-[(3-chlorophenyl)methyl]-N-(3,5-dimethylphenyl)acetamide]
100 to 1000	COc1ccc(Cl)c(N(Cc2ccc(F)cc2)C(=O)CCl)c1 [Compound A37, 2-chloro-N-(2-chloro-5-methoxy-phenyl)-N-[(4-fluorophenyl)methyl]acetamide]
10 to 100	COc1ccc(CN(C(=O)CCl)c2cc(C)cc(C)c2)cc1 [Compound A2, 2-chloro-N-(3,5-dimethylphenyl)-N-[(4-methoxyphenyl)methyl]acetamide]
100 to 1000	COc1cc(C)cc(N(Cc2ccc(F)cc2)C(=O)CCl)c1 [Compound A25, 2-chloro-N-[(4-fluorophenyl)methyl]-N-(3-methoxy-5-methyl-phenyl)acetamide]
10 to 100	COc1cc(OC)cc(N(Cc2ccc(F)cc2C(F)(F)F)C(=O)CCl)c1 [Compound A27, 2-chloro-N-(3,5-dimethoxyphenyl)-N-[[4-fluoro-2-(trifluoro-methyl)phenyl]methyl]acetamide]

Same assay, conditions: HT-1080, 24 hrs, cells plated with and without 1.5 μM ferrostatin-1, table does not say which, Table 8

IC50 [nM]	Structure (SMILES)
1000 to 10000	COCCCN(C(=O)CCl)c1nc(-c2ccc(OC)cc2)cs1 [Compound B3, 2-chloro-N-[4-(4-methoxyphenyl)thiazol-2-yl]-N-(3-methoxypropyl)acetamide]
10 to 100	C#CC(=O)N(c1cc(C)cc(C)c1)c1nc(-c2ccc(Br)cc2)cs1 [Compound B13, N-[4-(4-bromophenyl)thiazol-2-yl]-N-(3,5-dimethylphenyl)prop-2-ynamide]
1000 to 10000	C#CC(=O)N(CCCOC)c1nc(-c2ccc(Br)cc2)cs1 [Compound B2, N-[4-(4-bromophenyl)thiazol-2-yl]-N-(3-methoxypropyl)prop-2-ynamide]
1000 to 10000	O=C(CCl)N(c1cc(Cl)cc(Cl)c1)c1nc(-c2ccc(Br)cc2)cs1 [Compound B20, N-[4-(4-bromophenyl)thiazol-2-yl]-2-chloro-N-(3,5-dichlorophenyl)acetamide]
> 10000	C=CC(=O)N(c1cc(C)cc(C)c1)c1nc(-c2ccc(Br)cc2)cs1 [Compound B7, N-[4-(4-bromophenyl)thiazol-2-yl]-N-(3,5-dimethylphenyl)prop-2-enamide]
10 to 100	C#CC(=O)N(c1cc(OC)cc(OC)c1)c1nc(-c2ccc(Br)cc2)cs1 [Compound B19, N-[4-(4-bromophenyl)thiazol-2-yl]-N-(3,5-dimethoxyphenyl)prop-2-ynamide]
100 to 1000	COc1cc(Cl)cc(N(C(=O)CCl)c2nc(-c3ccc(Br)cc3)cs2)c1 [Compound B24, N-[4-(4-bromophenyl)thiazol-2-yl]-2-chloro-N-(3-chloro-5-methoxy-phenyl)acetamide]
100 to 1000	COc1cccc(N(C(=O)CCl)c2nc(-c3ccc(Br)cc3)cs2)c1 [Compound B17, N-[4-(4-bromophenyl)thiazol-2-yl]-2-chloro-N-(3-methoxyphenyl)acetamide]
> 10000	CC#CC(=O)N(c1cc(C)cc(C)c1)c1nc(-c2ccc(Br)cc2)cs1 [Compound B8, N-[4-(4-bromophenyl)thiazol-2-yl]-N-(3,5-dimethylphenyl)but-2-ynamide]
1000 to 10000	O=C(CCl)N(Cc1ccccc1)c1nc(-c2ccc(Br)cc2)cs1 [Compound B14, N-benzyl-N-[4-(4-bromophenyl)thiazol-2-yl]-2-chloro-acetamide]
100 to 1000	Cc1cc(C)cc(N(C(=O)CCl)c2nc(-c3ccc(Br)cc3)cs2)c1 [Compound B5, N-[4-(4-bromophenyl)thiazol-2-yl]-2-chloro-N-(3,5-dimethylphenyl)acetamide]
